Data as given in PMC8286840, “Identifying SARS-CoV-2 antiviral compounds by screening for small molecule inhibitors of Nsp3 papain-like protease” (Biochemical Journal, 2021).
Counter-ions that a name gives are not always drawn. Like-named read-outs stand apart in the source and are kept apart here.

Experiments:
[1] = molecular target: T1, SARS-CoV-2 PLpro (nsp3 1564–1878) (Severe acute respiratory syndrome coronavirus 2, UniProt P0DTD1); assay: biochemical; set-up: FRET-quenched peptide (Pro3) cleavage by PLpro, 10 min pre-incubation, slope over 20 min, normalised to no-compound control; settings: low concentration screen, read-out: % of control remaining
[2] = molecular target: T1, SARS-CoV-2 PLpro (nsp3 1564–1878); assay: biochemical; set-up: FRET-quenched peptide (Pro3) cleavage by PLpro, 10 min pre-incubation, slope over 20 min, normalised to no-compound control; settings: high concentration screen, read-out: % of control remaining

Which results are given for CC(CN(C)C)NC(=O)c1cccc2[nH]c(-c3ccncc3)nc12 (centres unmarked) [ChX710]?
remaining activity at 1.25 µM ([1]; Well no.=8551): 108%; remaining activity at 3.75 µM ([2]; Well no.=8551): 101%

What does the source list for CCCCCCCCCCCCCC/C(C(=O)O)=C(\C)C(=O)O [Chaetomellic acid A]?
remaining activity at 1.25 µM ([1]; Well no.=3141): 95.8%; remaining activity at 3.75 µM ([2]; Well no.=3141): 96%

What does the source list for CO[C@H]1[C@@H](O)[C@@H](C)O[C@H](O[C@H]2[C@H](Oc3cccc4c(O)c5c(=O)oc6ccc(C)c7c(=O)oc(c34)c5c67)O[C@H](C)[C@H](O)[C@@H]2O)[C@@H]1O [Chartreusin]?
remaining activity at 1.25 µM ([1]; Well no.=3508): 96.6%; remaining activity at 3.75 µM ([2]; Well no.=3508): 98.4%

For COc1ccc2c(c[n+](C)c3c4cc5c(cc4ccc23)OCO5)c1OC [Chelerythrine chloride], which remaining activity at 1.25 µM ([1]; Well no.=28) is on record?
The remaining activity at 1.25 µM was 92.2%.

And the remaining activity at 1.25 µM ([1]; Well no.=2359)?
Its remaining activity at 1.25 µM is 103%.

What about the remaining activity at 3.75 µM ([2]; Well no.=28) of the same molecule?
The remaining activity at 3.75 µM was 92.4%.

What about the remaining activity at 3.75 µM ([2]; Well no.=2359) of the same molecule?
Its remaining activity at 3.75 µM is 105%.

For COc1ccc2c(c[n+](C)c3c4cc5c(cc4ccc23)OCO5)c1OC [Chelerythrine], which remaining activity at 1.25 µM ([1]; Well no.=3533) is on record?
The remaining activity at 1.25 µM was 102%.

And the remaining activity at 3.75 µM ([2]; Well no.=3533)?
Its remaining activity at 3.75 µM is 101%.

Which remaining activity at 1.25 µM ([1]; Well no.=282) does the source give for O=C(O)c1cc(=O)cc(C(=O)O)[nH]1 [Chelidamic acid] here?
Its remaining activity at 1.25 µM is 86.7%.

What about the remaining activity at 3.75 µM ([2]; Well no.=282) of the same molecule?
Its remaining activity at 3.75 µM is 90.8%.

Which remaining activity at 1.25 µM ([1]; Well no.=6682) does the source give for O=C(O)c1cc(=O)cc(C(=O)O)o1 [Chelidonic acid] here?
The remaining activity at 1.25 µM was 102%.

And the remaining activity at 3.75 µM ([2]; Well no.=6682)?
The remaining activity at 3.75 µM was 102%.

C[C@H](CCC(=O)O)[C@H]1CC[C@H]2[C@@H]3[C@H](O)C[C@@H]4C[C@H](O)CC[C@]4(C)[C@H]3CC[C@]12C [Chenodeoxycholic Acid] was tested. Which remaining activity at 1.25 µM ([1]; Well no.=6483) did it give?
The remaining activity at 1.25 µM was 99.2%.

What about the remaining activity at 1.25 µM ([1]; Well no.=8382) of the same molecule?
Its remaining activity at 1.25 µM is 96.1%.

What about the remaining activity at 3.75 µM ([2]; Well no.=6483) of the same molecule?
Its remaining activity at 3.75 µM is 101%.

What about the remaining activity at 3.75 µM ([2]; Well no.=8382) of the same molecule?
Its remaining activity at 3.75 µM is 88.2%.

How did the remaining activity at 1.25 µM ([1]; Well no.=2389) turn out when Nc1nc(O)c(C2=C3C(=Nc4ccccc43)C(=O)NCC2)[nH]1 [Chk2 Inhibitor] was run?
The remaining activity at 1.25 µM was 103%.

What about the remaining activity at 3.75 µM ([2]; Well no.=2389) of the same molecule?
Its remaining activity at 3.75 µM is 103%.

For O=C(O)CCCc1ccc(N(CCCl)CCCl)cc1 [Chlorambucil], which remaining activity at 1.25 µM ([1]; Well no.=327) is on record?
Its remaining activity at 1.25 µM is 96.4%.

What about the remaining activity at 1.25 µM ([1]; Well no.=2227) of the same molecule?
Its remaining activity at 1.25 µM is 99.2%.

What about the remaining activity at 3.75 µM ([2]; Well no.=327) of the same molecule?
Its remaining activity at 3.75 µM is 98.4%.

And the remaining activity at 3.75 µM ([2]; Well no.=2227)?
Its remaining activity at 3.75 µM is 98.3%.

What does the source list for O=C(N[C@H](CO)[C@H](O)c1ccc([N+](=O)[O-])cc1)C(Cl)Cl [Chloramphenicol]?
remaining activity at 1.25 µM ([1]; Well no.=2223): 96.9%; remaining activity at 3.75 µM ([2]; Well no.=2223): 96.6%

With CC(=O)O[C@]1(C(C)=O)CC[C@H]2[C@@H]3C=C(Cl)C4=CC(=O)CC[C@]4(C)[C@H]3CC[C@@]21C [Chlormadinone Acetate] as the molecule, how does the remaining activity at 1.25 µM ([1]; Well no.=2225) read?
The remaining activity at 1.25 µM was 97.4%.

And the remaining activity at 3.75 µM ([2]; Well no.=2225)?
The remaining activity at 3.75 µM was 96.7%.

How did the remaining activity at 1.25 µM ([1]; Well no.=679) turn out when CN1C(=O)CCS(=O)(=O)C1c1ccc(Cl)cc1 (centres unmarked) [Chlormezanone] was run?
Its remaining activity at 1.25 µM is 99%.

And the remaining activity at 3.75 µM ([2]; Well no.=679)?
Its remaining activity at 3.75 µM is 96.9%.

With CNC(=O)[C@H]1O[C@@H](n2cnc3c(NCc4cccc(I)c4)nc(Cl)nc32)[C@H](O)[C@@H]1O [Chloro-IB-MECA] as the molecule, how does the remaining activity at 1.25 µM ([1]; Well no.=395) read?
The remaining activity at 1.25 µM was 95.2%.

And the remaining activity at 3.75 µM ([2]; Well no.=395)?
The remaining activity at 3.75 µM was 95.2%.

How did the remaining activity at 1.25 µM ([1]; Well no.=3510) turn out when O=C(/C=C/c1ccc(O)c(O)c1)O[C@@H]1C[C@](O)(C(=O)O)C[C@@H](O)[C@H]1O [Chlorogenic acid] was run?
Its remaining activity at 1.25 µM is 103%.

And the remaining activity at 3.75 µM ([2]; Well no.=3510)?
The remaining activity at 3.75 µM was 103%.

NS(=O)(=O)c1cc2c(cc1Cl)N=CNS2(=O)=O [Chlorothiazide] was tested. Which remaining activity at 1.25 µM ([1]; Well no.=82) did it give?
The remaining activity at 1.25 µM was 99.4%.

What about the remaining activity at 1.25 µM ([1]; Well no.=7460) of the same molecule?
Its remaining activity at 1.25 µM is 96%.

And the remaining activity at 3.75 µM ([2]; Well no.=82)?
Its remaining activity at 3.75 µM is 100%.

What about the remaining activity at 3.75 µM ([2]; Well no.=7460) of the same molecule?
Its remaining activity at 3.75 µM is 102%.

Oc1c(Cl)cc(Cl)c2cccnc12 [Chloroxine] was tested. Which remaining activity at 1.25 µM ([1]; Well no.=5266) did it give?
The remaining activity at 1.25 µM was 91.9%.

What about the remaining activity at 3.75 µM ([2]; Well no.=5266) of the same molecule?
The remaining activity at 3.75 µM was 97.2%.

For CN(C)CCC(c1ccc(Cl)cc1)c1ccccn1 (centres unmarked) [Chlorpheniramine (maleate)], which remaining activity at 1.25 µM ([1]; Well no.=7525) is on record?
The remaining activity at 1.25 µM was 103%.

What about the remaining activity at 3.75 µM ([2]; Well no.=7525) of the same molecule?
Its remaining activity at 3.75 µM is 101%.

What does the source list for CN(C)CCC(c1ccc(Cl)cc1)c1ccccn1 (centres unmarked) [Chlorpheniramine]?
remaining activity at 1.25 µM ([1]; Well no.=2229): 93.7%; remaining activity at 3.75 µM ([2]; Well no.=2229): 95.1%

Which results are given for CN(C)CCOC(C)(c1ccccc1)c1ccc(Cl)cc1 (centres unmarked) [Chlorphenoxamine]?
remaining activity at 1.25 µM ([1]; Well no.=6219): 102%; remaining activity at 3.75 µM ([2]; Well no.=6219): 100%

For CN(C)CCCN1c2ccccc2Sc2ccc(Cl)cc21 [Chlorpromazine (hydrochloride)], which remaining activity at 1.25 µM ([1]; Well no.=6227) is on record?
The remaining activity at 1.25 µM was 95.8%.

And the remaining activity at 3.75 µM ([2]; Well no.=6227)?
Its remaining activity at 3.75 µM is 96.3%.

Which results are given for CN(C)CCCN1c2ccccc2Sc2ccc(Cl)cc21 [Chlorpromazine hydrochloride]?
remaining activity at 1.25 µM ([1]; Well no.=44): 98.8%; remaining activity at 3.75 µM ([2]; Well no.=44): 96.9%

With CN(C)CCCN1c2ccccc2Sc2ccc(Cl)cc21 [Chlorpromazine.HCl] as the molecule, how does the remaining activity at 1.25 µM ([1]; Well no.=1596) read?
Its remaining activity at 1.25 µM is 104%.

What about the remaining activity at 3.75 µM ([2]; Well no.=1596) of the same molecule?
Its remaining activity at 3.75 µM is 103%.

What does the source list for CCCNC(=O)NS(=O)(=O)c1ccc(Cl)cc1 [Chlorpropamide]?
remaining activity at 1.25 µM ([1]; Well no.=331): 96.9%; remaining activity at 3.75 µM ([2]; Well no.=331): 97.8%

Which results are given for CN(C)CC/C=C1/c2ccccc2Sc2ccc(Cl)cc21 [Chlorprothixene hydrochloride]?
remaining activity at 1.25 µM ([1]; Well no.=45): 89.3%; remaining activity at 3.75 µM ([2]; Well no.=45): 90.5%

For CN(C)CC/C=C1/c2ccccc2Sc2ccc(Cl)cc21 [Chlorprothixene], which remaining activity at 1.25 µM ([1]; Well no.=5345) is on record?
Its remaining activity at 1.25 µM is 97.4%.

What about the remaining activity at 1.25 µM ([1]; Well no.=6221) of the same molecule?
The remaining activity at 1.25 µM was 104%.

And the remaining activity at 3.75 µM ([2]; Well no.=5345)?
The remaining activity at 3.75 µM was 93.5%.

And the remaining activity at 3.75 µM ([2]; Well no.=6221)?
Its remaining activity at 3.75 µM is 99.3%.

C[C@H](CCC(=O)O)[C@H]1CC[C@H]2[C@@H]3[C@H](O)C[C@@H]4C[C@H](O)CC[C@]4(C)[C@H]3C[C@H](O)[C@]12C [Cholic acid] was tested. Which remaining activity at 1.25 µM ([1]; Well no.=6201) did it give?
Its remaining activity at 1.25 µM is 105%.

And the remaining activity at 1.25 µM ([1]; Well no.=8202)?
Its remaining activity at 1.25 µM is 96.6%.

And the remaining activity at 3.75 µM ([2]; Well no.=6201)?
Its remaining activity at 3.75 µM is 105%.

What about the remaining activity at 3.75 µM ([2]; Well no.=8202) of the same molecule?
Its remaining activity at 3.75 µM is 94.8%.

Which results are given for C[N+](C)(C)CCO [Choline bromide]?
remaining activity at 1.25 µM ([1]; Well no.=93): 93.4%; remaining activity at 3.75 µM ([2]; Well no.=93): 97%

With CO[C@@H]1[C@H](O)C[C@@H](O[C@@H]2C[C@H](Oc3cc4cc5c(c(O)c4c(O)c3C)C(=O)[C@@H](O[C@H]3C[C@@H](O[C@H]4C[C@@H](O[C@H]6C[C@](C)(O)[C@@H](OC(C)=O)[C@H](C)O6)[C@H](O)[C@@H](C)O4)[C@H](O)[C@@H](C)O3)[C@H]([C@H](OC)C(=O)[C@@H](O)[C@@H](C)O)C5)O[C@H](C)[C@@H]2OC(C)=O)O[C@@H]1C [Chromomycin A3] as the molecule, how does the remaining activity at 1.25 µM ([1]; Well no.=3579) read?
Its remaining activity at 1.25 µM is 103%.

And the remaining activity at 3.75 µM ([2]; Well no.=3579)?
The remaining activity at 3.75 µM was 107%.

Which remaining activity at 1.25 µM ([1]; Well no.=3276) does the source give for O=c1cc(-c2ccccc2)oc2cc(O)cc(O)c12 [Chrysine] here?
The remaining activity at 1.25 µM was 101%.

What about the remaining activity at 3.75 µM ([2]; Well no.=3276) of the same molecule?
Its remaining activity at 3.75 µM is 100%.

How did the remaining activity at 1.25 µM ([1]; Well no.=7323) turn out when CC(C)C(=O)OCC(=O)[C@@]12O[C@H](C3CCCCC3)O[C@@H]1C[C@H]1[C@@H]3CCC4=CC(=O)C=C[C@]4(C)[C@H]3[C@@H](O)C[C@@]12C [Ciclesonide] was run?
The remaining activity at 1.25 µM was 95.9%.

What about the remaining activity at 3.75 µM ([2]; Well no.=7323) of the same molecule?
The remaining activity at 3.75 µM was 97.2%.
